Experimental data from ChEMBL document CHEMBL4043214, “Design, synthesis, and SAR study of 3-(benzo[d][1,3]dioxol-5-yl)-N-benzylpropanamide as novel potent synergists against fluconazole-resistant Candida albicans” (2017).

Columns and labels:
Type in all cases: functional
Candida albicans [1] = experiment: Potentiation of fluconazole-induced anti-fungal activity against fluconazole-resistant Candida albicans isolate 103 assessed as fluconazole MIC80 at 2 ug/ml by checkerboard microdilution assay
Candida albicans [2] = experiment: Potentiation of fluconazole-induced anti-fungal activity against fluconazole-resistant Candida albicans isolate 100 at 1 ug/ml by checkerboard microdilution assay
Candida albicans [3] = experiment: Potentiation of fluconazole-induced anti-fungal activity against fluconazole-resistant Candida albicans isolate 103 at 4 ug/ml by checkerboard microdilution assay
Candida albicans [4] = experiment: Potentiation of fluconazole-induced anti-fungal activity against fluconazole-resistant Candida albicans isolate 103 by two-fold dilution method
Candida albicans [5] = experiment: Anti-fungal activity against fluconazole-resistant Candida albicans isolate 103 by microbroth dilution method
Candida albicans [6] = experiment: Potentiation of fluconazole-induced anti-fungal activity against fluconazole-resistant Candida albicans isolate 100 at 2 ug/ml by checkerboard microdilution assay
Candida albicans [7] = experiment: Potentiation of fluconazole-induced anti-fungal activity against fluconazole-resistant Candida albicans isolate 103 assessed as fluconazole MIC80 at 4 ug/ml by checkerboard microdilution assay
Candida albicans [8] = experiment: Potentiation of fluconazole-induced anti-fungal activity against fluconazole-resistant Candida albicans isolate 100 by two-fold dilution method
Candida albicans [9] = experiment: Potentiation of fluconazole-induced anti-fungal activity against fluconazole-resistant Candida albicans isolate 103 at 8 ug/ml by checkerboard microdilution assay
Candida albicans [10] = experiment: Synergistic anti-fungal activity against fluconazole-resistant Candida albicans isolate 103 in presence of fluconazole by two-fold dilution method
Candida albicans [11] = experiment: Potentiation of fluconazole-induced anti-fungal activity against fluconazole-resistant Candida albicans isolate 100 at 4 ug/ml by checkerboard microdilution assay
Candida albicans [12] = experiment: Potentiation of fluconazole-induced anti-fungal activity against fluconazole-resistant Candida albicans isolate 100 at 8 ug/ml by checkerboard microdilution assay
Candida albicans [13] = experiment: Anti-fungal activity against fluconazole-resistant Candida albicans isolate 100 by microbroth dilution method
Candida albicans [14] = experiment: Potentiation of fluconazole-induced anti-fungal activity against fluconazole-resistant Candida albicans isolate 103 assessed as fluconazole MIC80 at 8 ug/ml by checkerboard microdilution assay
Candida albicans [15] = experiment: Potentiation of fluconazole-induced anti-fungal activity against fluconazole-resistant Candida albicans isolate 103 at 1 ug/ml by checkerboard microdilution assay
Candida albicans [16] = experiment: Potentiation of fluconazole-induced anti-fungal activity against fluconazole-resistant Candida albicans isolate 103 at 2 ug/ml by checkerboard microdilution assay
Candida albicans [17] = experiment: Potentiation of fluconazole-induced anti-fungal activity against fluconazole-resistant Candida albicans isolate 100 assessed as fluconazole MIC80 at 1 ug/ml by checkerboard microdilution assay
Candida albicans [18] = experiment: Synergistic anti-fungal activity against fluconazole-resistant Candida albicans isolate 100 in presence of fluconazole by two-fold dilution method
Candida albicans [19] = experiment: Potentiation of fluconazole-induced anti-fungal activity against fluconazole-resistant Candida albicans isolate 100 assessed as fluconazole MIC80 at 8 ug/ml by checkerboard microdilution assay
Candida albicans [20] = experiment: Potentiation of fluconazole-induced anti-fungal activity against fluconazole-resistant Candida albicans isolate 100 assessed as fluconazole MIC80 at 4 ug/ml by checkerboard microdilution assay
Candida albicans [21] = experiment: Potentiation of fluconazole-induced anti-fungal activity against fluconazole-resistant Candida albicans isolate 100 assessed as fluconazole MIC80 at 2 ug/ml by checkerboard microdilution assay
Candida albicans [22] = experiment: Potentiation of fluconazole-induced anti-fungal activity against fluconazole-resistant Candida albicans isolate 103 assessed as fluconazole MIC80 at 1 ug/ml by checkerboard microdilution assay

Question: Which MIC80 (Candida albicans [1]) does the source give for `O=C(CCc1ccc2c(c1)OCO2)NCc1ccc(-c2ccccc2F)cc1` here?
Answer: 0.125 µg/mL

Question: And the “fractional inhibitory concentration index (FICI)” value (Candida albicans [2])?
Answer: 0.009

Question: And the “fractional inhibitory concentration index (FICI)” value (Candida albicans [3])?
Answer: 0.032

Question: And the “fractional inhibitory concentration index (FICI)” value (Candida albicans [4])?
Answer: 0.063

Question: And the MIC80 (Candida albicans [5])?
Answer: > 64 µg/mL

Question: And the “fractional inhibitory concentration index (FICI)” value (Candida albicans [6])?
Answer: 0.017

Question: What about the MIC80 (Candida albicans [7]) of the same compound?
Answer: 0.063 µg/mL

Question: And the “fractional inhibitory concentration index (FICI)” value (Candida albicans [8])?
Answer: 0.063

Question: What about the “fractional inhibitory concentration index (FICI)” value (Candida albicans [9]) of the same compound?
Answer: 0.066

Question: What about the MIC80 (Candida albicans [10]) of the same compound?
Answer: 0.031 µg/mL

Question: What about the “fractional inhibitory concentration index (FICI)” value (Candida albicans [11]) of the same compound?
Answer: 0.032

Question: And the “fractional inhibitory concentration index (FICI)” value (Candida albicans [12])?
Answer: 0.066

Question: What about the MIC80 (Candida albicans [13]) of the same compound?
Answer: > 64 µg/mL

Question: And the MIC80 (Candida albicans [14])?
Answer: 0.031 µg/mL

Question: What about the “fractional inhibitory concentration index (FICI)” value (Candida albicans [15]) of the same compound?
Answer: 0.01

Question: What about the “fractional inhibitory concentration index (FICI)” value (Candida albicans [16]) of the same compound?
Answer: 0.017

Question: What about the MIC80 (Candida albicans [17]) of the same compound?
Answer: 0.125 µg/mL

Question: And the MIC80 (Candida albicans [18])?
Answer: 0.031 µg/mL

Question: What about the MIC80 (Candida albicans [19]) of the same compound?
Answer: 0.031 µg/mL

Question: What about the MIC80 (Candida albicans [20]) of the same compound?
Answer: 0.63 µg/mL

Question: And the MIC80 (Candida albicans [21])?
Answer: 0.125 µg/mL

Question: What about the MIC80 (Candida albicans [22]) of the same compound?
Answer: 0.25 µg/mL
